Columns and labels:
ErbB3 mRNA [1] = test: ErbB3 mRNA KD in tumor of 15PC3 human prostate cancer xenografted mice; format: in vivo; details: 45 mg/kg i.v. q3d×4 (G8)
Protocol: (§1) The in vivo efficacy of nanoparticles described herein was evaluated in human prostate cancer xenografted mice. The 15PC3 human prostate tumors were established in nude mice by subcutaneous injection of 5×10^6 cells/mouse into the right auxiliary flank. When tumors reached the average volume of 100 mm^3, the mice were randomly grouped 5 mice per group. The mice of each group were treated with nanoparticle encapsulating antisense ErbB3 oligonucleotides (Sample NP5) or corresponding naked oligonucleotides (Oligo 2). The nanoparticles were given intravenously (i.v.) at 15 mg/kg/dose, 5 mg/kg/dose, 1 mg/kg/dose, or 0.5 mg/kg/dose at q3d×4 for 12 days. The dosage amount is based on the amount of oligonucleotides in the nanoparticles. The naked oligonucleotides were given intraperitoneally (i.p.) at 30 mg/kg/dose or intravenously at 25 mg/kg/dose or 45 mg/kg/dose at q3d×4 for 12 days. The mice were sacrificed twenty four hours after the final dose. Plasma samples were collected from the mice and stored at −20° C. Tumor and liver samples were also collected from the mice. The samples were analyzed for mRNA KD.

ErbB3 mRNA [2] = test: ErbB3 mRNA KD in liver of 15PC3 human prostate cancer xenografted mice; format: in vivo; details: 25 mg/kg/dose i.v. q3d×4 (G7)
Protocol: as §1

Q: For “Oligo-2: antisense ErbB3 LNA, 5′-TAGcctgtcacttmCTmC-3′, phosphorothioate linkage; naked oligonucleotide (antisense 5'-TAGcctgtcactt^{m}CT^{m}C-3'; LNA, as printed in the source, key not given here)”, which “ErbB3 mRNA expression inhibited in tumor” value (ErbB3 mRNA [1]) is on record?
A: about 37%

Q: And the “ErbB3 mRNA KD activity in liver” value (ErbB3 mRNA [2])?
A: about 87%

— patent publication US20110111044A1, “NANOPARTICLE COMPOSITIONS FOR NUCLEIC ACIDS DELIVERY SYSTEM” (ENZON PHARMACEUTICALS, INC., priority 2008, published 2011)
